From US8664289B2, “Dye and coloring photosensitive composition” (Adeka Corporation, priority 2010, dated 2014)

What was measured:
Assay type in all cases: physicochemical
Solubility in PGMEA = details: concentration when PGMEA was added dropwise to 0.1 g of the compound under stirring and was dissolved completely
Protocol: (§1) That the obtained solid was an intended product was confirmed by ^1H-NMR and IR. Furthermore, the solubility of the obtained compound was measured. The solubility was a concentration when PGMEA was added dropwise to 0.1 g of the compound under stirring and was dissolved completely. The results thereof are shown in [Table 1] to [Table 4].
as §1, with “added” for “added dropwise”, “while” for “under”, “4]” for “4].”

[1] = Evaluation of absorption wavelength property in CHCl3 solution; set-up: ε: unit not given here; details: for ε: molar absorption coefficient
Text: The absorption wavelength properties of Compounds Nos. 1 to 7, 16, 26, 43, 52 to 62, 65, 66, 69, 70 and 94 to 102 and Comparative Compounds Nos. 1 and 2 obtained above were each evaluated in a CHCl3 solution. The results are shown in [Table 5].

[2] = Evaluation of heat resistance by TG-DTA; details: temperature at 10% weight loss
Protocol: Compounds Nos. 1 to 7, 16, 26, 43, 52 to 62, 65, 66, 69, 70 and 94 to 102 and Comparative Compounds Nos. 1 and 2 obtained above were analyzed by TG-DTA, and the melting points and temperatures at 10% weight loss were measured. The results are shown in [Table 6].

[3] = Heat resistance of exposed coating film of coloring alkali-developable photosensitive composition; details: for Relative intensity After exposure: coating film after exposure (150 mJ/cm^2), before heating; for λmax: coating film of composition containing the compound, on glass; for Relative intensity 230° C., 30 min: exposed coating film after 230° C.
Text: 30.33 g of ACA Z250 (manufactured by Daicel Cytec Company Ltd.) and 11.04 g of ARONIX M-450 (manufactured by Toagosei Co., Ltd.) as the component (B), 1.93 g of IRGACURE 907 (manufactured by BASF) as the component (C), 36.60 g of PGMEA and 20.08 g of cyclohexanone as the component (E), as well as 0.01 g of FZ2122 (manufactured by Dow Corning Toray Co., Ltd.) as other component were mixed and stirred until insoluble components were diminished to give Alkali-developable photosensitive composition No. 1.
1.90 g of dimethylacetamide was added to 0.10 g of Compound No. 1 obtained above as the component (A) and dissolved under stirring.
5.0 g of Alkali-developable photosensitive composition No. 1 obtained in Step 1 and 1.0 g of Dye liquid No. 1 obtained in Step 2 were mixed and stirred to homogeneous to give Coloring alkali-developable photosensitive composition No. 1 of the present invention.
Coloring alkali-developable photosensitive compositions Nos. 2 to 20 were obtained in a similar manner to that in Example 2-1, except that Compound No. 1 as the component (A) in Step 2 of Example 2-1 was changed to Compound No. 2, 3, 5, 6, 16, 53, 56, 57, 59, 60, 65, 66, 94 or 96 to 101 obtained above.
Comparative coloring alkali-developable photosensitive compositions Nos. 1 and 2 were obtained in a similar manner to that in Example 2-1, except that Compound No. 1 as the component (A) in Step 2 of Example 2-1 was changed to Comparative Compound No. 1 or 2.
The coloring alkali-developable photosensitive compositions obtained in Example 2 were each applied to a glass basal plate under a condition of 410 rpm×7 sec and dried (90° C., 90 sec) on a hot plate. The obtained coating film was exposed (150 mJ/cm^2) by using an ultrahigh pressure mercury lamp. The heat resistance of the exposed coating film was investigated under conditions of 180° C.×60 min and 230° C.×30 min. The results are shown in [Table 7].
Using the coloring alkali-developable photosensitive compositions obtained in Examples 2-2 to 2-20 and Comparative Examples 2-1 and 2-2, heat resistance was investigated in a similar manner to that in Evaluation Example 3. The results are shown in [Table 7].

## CCN(CC)c1ccc(/C=C(\C#N)C(=O)OCCOC(=O)/C(C#N)=C/c2ccc(N(CC)CC)cc2)cc1 [Compound No. 1]
Solubility in PGMEA
  Solubility (PGMEA): 0.5 wt %
[1]
  λmax: 436 nm
  ε: 107000
[2]
  10% weight loss: 318 °C
[3]
  Relative intensity After exposure: 100
  λmax: 418 nm
  Relative intensity 230° C., 30 min: 99.4

## CCN(CC)c1ccc(/C=C(\C#N)C(=O)OCC(C)OC(=O)/C(C#N)=C/c2ccc(N(CC)CC)cc2)cc1 (stereo not drawn) [Compound No. 2]
Solubility in PGMEA
  Solubility (PGMEA): 4.0 wt %
[1]
  λmax: 434 nm
  ε: 100000
[2]
  10% weight loss: 312 °C
[3]
  Relative intensity After exposure: 100
  λmax: 430 nm
  Relative intensity 230° C., 30 min: 99.3

## CCN(CC)c1ccc(/C=C(\C#N)C(=O)OCCCOC(=O)/C(C#N)=C/c2ccc(N(CC)CC)cc2)cc1 [Compound No. 3]
Solubility in PGMEA
  Solubility (PGMEA): 0.4 wt %
[1]
  λmax: 435 nm
  ε: 104000
[2]
  10% weight loss: 329 °C
[3]
  Relative intensity After exposure: 100
  λmax: 433 nm
  Relative intensity 230° C., 30 min: 99.4

## CCN(CC)c1ccc(/C=C(\C#N)C(=O)OCCCCCCCOC(=O)/C(C#N)=C/c2ccc(N(CC)CC)cc2)cc1 [Compound No. 5]
Solubility in PGMEA
  Solubility (PGMEA): 2.0 wt %
[1]
  λmax: 430 nm
  ε: 110000
[2]
  10% weight loss: 348 °C
[3]
  Relative intensity After exposure: 100
  λmax: 431 nm
  Relative intensity 230° C., 30 min: 99.5

## CCN(CC)c1ccc(/C=C(\C#N)C(=O)Oc2ccc(C(C)(C)c3ccc(OC(=O)/C(C#N)=C/c4ccc(N(CC)CC)cc4)cc3)cc2)cc1 [Compound No. 6]
Solubility in PGMEA
  Solubility (PGMEA): 0.9 wt %
[1]
  λmax: 440 nm
  ε: 132000
[2]
  10% weight loss: 322 °C
[3]
  Relative intensity After exposure: 100
  λmax: 442 nm
  Relative intensity 230° C., 30 min: 99.9

## CCN(CC)c1ccc(/C=C(\C#N)C(=O)OCC(COC(=O)/C(C#N)=C/c2ccc(N(CC)CC)cc2)(COC(=O)/C(C#N)=C/c2ccc(N(CC)CC)cc2)COC(=O)/C(C#N)=C/c2ccc(N(CC)CC)cc2)cc1 [Compound No. 16]
Solubility in PGMEA
  Solubility (PGMEA): 1.8 wt %
[1]
  λmax: 439 nm
  ε: 210000
[2]
  10% weight loss: 328 °C
[3]
  Relative intensity After exposure: 100
  λmax: 438 nm
  Relative intensity 230° C., 30 min: 99.7

## CCN(CC)c1ccc(/C=C(\C#N)C(=O)OCC(C)(COC(=O)/C(C#N)=C/c2ccc(N(CC)CC)cc2)COC(=O)/C(C#N)=C/c2ccc(N(CC)CC)cc2)cc1 [Compound No. 56]
Solubility in PGMEA
  Solubility (PGMEA): 5.6 wt %
[1]
  λmax: 436 nm
  ε: 160000
[2]
  10% weight loss: 334 °C
[3]
  Relative intensity After exposure: 100
  λmax: 430 nm
  Relative intensity 230° C., 30 min: 99.9

## CCN(CC)c1ccc(/C=C(\C#N)C(=O)OCC(CC)(COC(=O)/C(C#N)=C/c2ccc(N(CC)CC)cc2)COC(=O)/C(C#N)=C/c2ccc(N(CC)CC)cc2)cc1 [Compound No. 57]
Solubility in PGMEA
  Solubility (PGMEA): 1.0 or less wt %
[1]
  λmax: 437 nm
  ε: 152000
[2]
  10% weight loss: 339 °C
[3]
  Relative intensity After exposure: 100
  λmax: 430 nm
  Relative intensity 230° C., 30 min: 99.9

## CN(CCO)c1ccc(/C=C(\C#N)C(=O)OCCCCCCOC(=O)/C(C#N)=C/c2ccc(N(C)CCO)cc2)cc1 [Compound No. 59]
Solubility in PGMEA
  Solubility (PGMEA): 1.0 or less wt %
[1]
  λmax: 420 nm
  ε: 89900
[2]
  10% weight loss: 295 °C
[3]
  Relative intensity After exposure: 100
  λmax: 431 nm
  Relative intensity 230° C., 30 min: 99.7

## N#C/C(=C\c1ccc(N2CCOCC2)cc1)C(=O)OCCCCCCCOC(=O)/C(C#N)=C/c1ccc(N2CCOCC2)cc1 [Compound No. 60]
Solubility in PGMEA
  Solubility (PGMEA): 1.0 or less wt %
[1]
  λmax: 405 nm
  ε: 71700
[2]
  10% weight loss: 350 °C
[3]
  Relative intensity After exposure: 100
  λmax: 408 nm
  Relative intensity 230° C., 30 min: 73.8

## N#C/C(=C\c1ccc(N(c2ccccc2)c2ccccc2)cc1)C(=O)OCCCCCCCOC(=O)/C(C#N)=C/c1ccc(N(c2ccccc2)c2ccccc2)cc1 [Compound No. 65]
Solubility in PGMEA
  Solubility (PGMEA): 5.3 wt %
[1]
  λmax: 435 nm
  ε: 65300
[2]
  10% weight loss: 354 °C
[3]
  Relative intensity After exposure: 100
  λmax: 430 nm
  Relative intensity 230° C., 30 min: 99.3

## C=C(C)C(=O)OCCN(C)c1ccc(/C=C(\C#N)C(=O)OCCCCCCOC(=O)/C(C#N)=C/c2ccc(N(C)CCOC(=O)C(=C)C)cc2)cc1 [Compound No. 66]
Solubility in PGMEA
  Solubility (PGMEA): 1.0 or less wt %
[1]
  λmax: 419 nm
  ε: 94100
[2]
  10% weight loss: 354 °C
[3]
  Relative intensity After exposure: 100
  λmax: 419 nm
  Relative intensity 230° C., 30 min: 99.2

## CCCCN(CCCC)c1ccc(/C=C(\C#N)C(=O)Oc2ccc(S(=O)(=O)c3ccc(OC(=O)/C(C#N)=C/c4ccc(N(CCCC)CCCC)cc4)cc3)cc2)cc1 [Compound No. 70]
Solubility in PGMEA
  Solubility (PGMEA): 1.0 or less wt %
[1]
  λmax: 453 nm
  ε: 135000
[2]
  10% weight loss: 324 °C

## CCN(CC)c1ccc(/C=C(\C#N)C(=O)OCC(C)(COC(=O)/C(C#N)=C/c2ccc(N(CC)CC)cc2)COC(=O)/C(C#N)=C/c2ccc(N(c3ccccc3)c3ccccc3)cc2)cc1 (stereo not drawn) [Compound No. 96]
Solubility in PGMEA
  Solubility (PGMEA): 10.0 wt %
[1]
  λmax: 437 nm
  ε: 138000
[2]
  10% weight loss: 347 °C
[3]
  Relative intensity After exposure: 100
  λmax: 433 nm
  Relative intensity 230° C., 30 min: 99.5

## CCN(CC)c1ccc(/C=C(\C#N)C(=O)OCC(C)(COC(=O)/C(C#N)=C/c2ccc(N3CCOCC3)cc2)COC(=O)/C(C#N)=C/c2ccc(N3CCOCC3)cc2)cc1 [Compound No. 97]
Solubility in PGMEA
  Solubility (PGMEA): 10.0 wt %
[1]
  λmax: 417 nm
  ε: 103000
[2]
  10% weight loss: 334 °C
[3]
  Relative intensity After exposure: 100
  λmax: 417 nm
  Relative intensity 230° C., 30 min: 98.2

## CN(CCO)c1ccc(/C=C(\C#N)C(=O)OCC(C)(COC(=O)/C(C#N)=C/c2ccc(N(C)CCO)cc2)COC(=O)/C(C#N)=C/c2ccc(N(C)CCO)cc2)cc1 [Compound No. 98]
Solubility in PGMEA
  Solubility (PGMEA): 1.0 or less wt %
[1]
  λmax: 428 nm
  ε: 119000
[2]
  10% weight loss: 288 °C
[3]
  Relative intensity After exposure: 100
  λmax: 431 nm
  Relative intensity 230° C., 30 min: 99.5

## CCN(CC)c1ccc(/C=C(\C#N)C(=O)OCC(C)(COC(=O)/C(C#N)=C/c2ccc(N(C)CCO)cc2)COC(=O)/C(C#N)=C/c2ccc(N(C)CCO)cc2)cc1 [Compound No. 99]
Solubility in PGMEA
  Solubility (PGMEA): 1.0 or less wt %
[1]
  λmax: 431 nm
  ε: 130000
[2]
  10% weight loss: 320 °C
[3]
  Relative intensity After exposure: 100
  λmax: 433 nm
  Relative intensity 230° C., 30 min: 99.6

## CCCCN(CCCC)c1ccc(/C=C(\C#N)C(=O)OCC(C)(COC(=O)/C(C#N)=C/c2ccc(N(CCCC)CCCC)cc2)COC(=O)/C(C#N)=C/c2ccc(N(CCCC)CCCC)cc2)cc1 [Compound No. 102]
Solubility in PGMEA
  Solubility (PGMEA): 7.5 wt %
[1]
  λmax: 440 nm
  ε: 125000
[2]
  10% weight loss: 354 °C
